Measured values from PMC3724849 (PLoS ONE, 2013).
Where “and” joins values, the source holds several entries; their conditions need not be identical. Equal entries are not always repeated.

What was measured:
[1] = test system: CA1 pyramidal neurons of organotypic hippocampal brain slices; assay: Patch clamp of synaptic transmission in organotypic hippocampal slices; type: cell-based, rat
[2] = test system: CA1 neurons of organotypic hippocampal brain slices; assay: Current-clamp intrinsic excitability in organotypic hippocampal slices; type: cell-based, rat; conditions: SAHA vs vehicle treated slices; p>0.05
Method: (§1) Interface cultures of hippocampal slices were made from 7–8 day old Sprague Dawley rats as previously described. Briefly, hippocampi were dissected in minimum essential medium (MEM; Invitrogen, Eugene, OR) with 15 mm HEPES and 10 mm Tris buffer (Invitrogen). Four-hundred micrometer slices were cultured on Millicell CM culture plate inserts (Millipore, Temecula, CA). The culture medium consisted of 50% MEM, 25% HBSS, and 25% horse serum, with 12.5 mM HEPES buffer and penicillin (100 U/ml)/streptomycin (100 µg/ml) (all from Invitrogen). Cultures were maintained in 5% CO2, at 37°C. Slices were maintained in vitro for one week prior to transfection.
Patch clamp recordings were made in oxygenated Artificial Cerebrospinal Fluid (ACSF) containing (in mM) 127 NaCl, 2.5 KCl, 1.3 MgSO4, 2.5 CaCl2, 1.25 Na2HPO4, 25 NaHCO3, 25 glucose. For voltage-clamp recordings patch pipette internal solution consisted of 120 Cs-methanesulfonate, 20 CsCl, 0.5 EGTA, 10 HEPES, 2.5 MgCl2, 4 Na2ATP, 0.3 NA3GTP, 10 Phosphocreatine, and 5 mM QX-314 Br. Miniature excitatory postsynaptic currents (mEPSCs) were recorded in the presence of 100 µM Picrotoxin (PTX) and 1 µM tetrodotoxin (TTX) at a holding potential of −70 mV. Miniature inhibitory postsynaptic currents (mIPSCs) were recorded in the presence of 10 µM 2,3-Dioxo-6-nitro-1,2,3,4-tetrahydrobenzo[f]quinoxaline-7-sulfonamide (NBQX), 50 µM D-(−)-2-Amino-5-phosphonopentanoic acid (D-AP5) and 1 µM TTX at a holding potential of 0 mV. Significance of differences between mean frequencies or amplitudes of mEPSCs or mIPSCs were assessed using a student’s t-test. […]. For experiments measuring open NMDAR block synaptic inputs were stimulated locally using a bipolar stimulation electrode and NMDAR EPSCs were isolated using NBQX and PTX and measured at −70 mV with external MgCl2 lowered to 0.5 mM. […] For synaptic plasticity experiments synaptic inputs were stimulated locally using a bipolar stimulation electrode and EPSCs were measured at −70 mV. […] Significance of differences in normalized EPSC amplitudes between treatment groups following plasticity induction were assessed using a student’s t-test. […] Action potential threshold was measured during the smallest depolarizing current injection steps that triggered spiking. Input resistance was calculated from the steady-state response to the smallest hyperpolarizing current injection steps to avoid contamination from hyperpolarization-induced inward currents (h-current). The h-current “sag” was measured based on the difference between the maximal and steady-state voltage responses to strong hyperpolarizing current injection steps. Significance of differences in all measures between treatment groups were assessed using a student’s t-test.

[3] = test system: excitatory synapses in CA1 of organotypic hippocampal brain slices; assay: Synaptic plasticity (LTP, LTD) in organotypic hippocampal slices; type: cell-based, rat; conditions: p<0.05
Method: as §1
Patch clamp recordings were made in oxygenated Artificial Cerebrospinal Fluid (ACSF) containing (in mM) 127 NaCl, 2.5 KCl, 1.3 MgSO4, 2.5 CaCl2, 1.25 Na2HPO4, 25 NaHCO3, 25 glucose. For voltage-clamp recordings patch pipette internal solution consisted of 120 Cs-methanesulfonate, 20 CsCl, 0.5 EGTA, 10 HEPES, 2.5 MgCl2, 4 Na2ATP, 0.3 NA3GTP, 10 Phosphocreatine, and 5 mM QX-314 Br. Miniature excitatory postsynaptic currents (mEPSCs) were recorded in the presence of 100 µM Picrotoxin (PTX) and 1 µM tetrodotoxin (TTX) at a holding potential of −70 mV. […] Significance of differences between mean frequencies or amplitudes of mEPSCs or mIPSCs were assessed using a student’s t-test. […]

Tg2576 mice [4] = assay: Tg2576 fear conditioning; type: in vivo, mouse; conditions: 25 mg/kg or 50 mg/kg SAHA i.p. daily vs vehicle; p>0.05
Tg2576 mice [5] = assay: Open field test in Tg2576 mice; type: in vivo, mouse; conditions: dosing day 32, 30 minutes, mean ±SEM
[6] = Protein binding in plasma and brain; type: in vitro ADME
C57BL/6 mice = assay: SmartCube high-content behavioral phenotyping; type: in vivo, mouse; conditions: for discrimination index: p<0.001
Method: SmartCube experiments were conducted at Psychogenics, Inc (Tarrytown, NY). […] The SmartCube® system can measure numerous spontaneous behaviors and responses to challenges in the same testing environment. The hardware includes force sensors and a number of aversive stimuli used to elicit behavior. Three high-resolution video cameras provide constant 3D view of the mouse in the SmartCube® apparatus throughout the testing period. Digital videos of the subjects were processed with computer vision algorithms to extract over 2,000 independent measures including frequency and duration of behavioral states such as grooming, rearing, etc., and many other features obtained during the test session. […] The database comprises 14 classes of drugs with some of the major classes, such as the antidepressant class, comprising several subclasses with representatives of most of the drugs in the market.

[7] = Pharmacokinetic study after single i.p. injection
[8] = 0.5 µM SAHA for 3–4 days vs vehicle, p>0.05
[9] = single injection, valproate 225 mg/kg

## O=C(CCCCCCC(=O)Nc1ccccc1)NO [SAHA, Suberoylanilide hydroxamic acid]
[1]; 0.5 µM SAHA for 3–4 days vs vehicle, p<0.05
  median amplitude of mEPSCs: significantly increased
[1]; [8]
  amplitude of mIPSCs: did not significantly alter
  frequency of mIPSCs: did not significantly alter
  mEPSC frequency (median interval between events): no significant change
[1]; repetitive stimulation, SAHA vs vehicle treated slices, p>0.05
  rate of NMDAR EPSC blockade by MK-801: not different
[2]
  action potential threshold: unaltered
  input resistance: unaltered
  membrane sag (hyperpolarization-induced inward current): unaltered
  number of action potentials elicited by 500 ms current injection pulses: no difference
[3]; induction protocol subthreshold in vehicle treated slices
  LTP induction: readily evoked LTP
[3]; protocol that readily induced LTD in vehicle treated slices
  LTD induction: could not produce LTD
Tg2576 mice [4]
  percentage of time freezing in response to the context, altered context, or cue: no effect of treatment
  percentage of time spent freezing during conditioning: no effect of treatment
Tg2576 mice [5]; 25 mg/kg i.p. daily
  total distance traveled in the open field test: 39.6±6.1 m
Tg2576 mice [5]; 50 mg/kg i.p. daily
  total distance traveled in the open field test: 34.2±5.2 m
[6]; brain
  bound to protein, brain: 87.0%
[6]; plasma
  bound to protein, plasma: 40.7%
C57BL/6 mice; daily for 14 days, higher dose of SAHA (150 mg/kg)
  behavioral activity: not behaviorally active
C57BL/6 mice; daily for 14 days, lower dose of SAHA (50 mg/kg)
  drug class activity signature: not consistent with any known therapeutic signal
C57BL/6 mice; single injection of 50 mg/kg or 150 mg/kg SAHA
  behavioral activity: behaviorally inactive
[7]; 50 mg/kg i.p.
  AUClast of free SAHA in the brain: 0.07 µM·h
  Cmax of free SAHA in the brain: 110 ± 20 nM and 110 nM
[7]; 150 mg/kg i.p.
  AUClast of free SAHA in the brain: 0.36 µM·h
  Cmax of free SAHA in the brain: 100 ± 10 nM

## CCCC(CCC)C(=O)O [valproate]
C57BL/6 mice; daily for 14 days, valproate
  drug class activity signature: predominantly anxiolytic signature
  discrimination index: 98%
C57BL/6 mice; [9]
  drug class activity signature: strong anxiolytic signature and a mild psychostimulant signature
  discrimination index: 100%
